Experimental data reported in patent US20140275201A1, “IDENTIFICATION OF CANCER STEM CELL MARKERS AND USE OF […] TO TREAT CANCER” (BOARD OF REGENTS, THE UNIVERSITY OF TEXAS SYSTEM, priority 2013, published 2014).

Assays:
[1] = tested on: HMLER-FOXC2 cells; test: Cell growth in monolayer cultures with sunitinib, HMLER-FOXC2; assay type: cell-based, human; conditions: sunitinib 10 μM (FIG. 7A), method says 2.5 μM, six days
Protocol: (§1) FIG. 7: Sunitinib inhibits the growth and metastasis of FOXC2-expressing tumors. FIG. 7A: Quantification of HMLER-Vector and HMLER-FOXC2 cell viability in the presence of sunitinib (10 μM) relative to vehicle (DMSO). N=3; error bars indicate SEM. *P<0.05. FIG. 7B: In vitro quantification of mammospheres formed by 1000 HMLER-FOXC2 and HMLER-Snail cells in the presence of sunitinib (10 μM) or DMSO. N=3; error bars indicate SEM. *P<0.05. FIG. 7C: Tumor volume of HMLER-FOXC2 cells injected into the mammary fat pad of NOD/SCID mice and treated with 40 mg/kg of sunitinib or vehicle (N=9) daily for the indicated number of days. Top line represents Vehicle; bottom line represents Sunitinib. […] FIGS. 7E and F: Thirty days following initiation of sunitinib or vehicle treatment, mice were euthanized and the organs, lung (FIG. 7E) and brain (FIG. 7F), were dissected and analyzed for metastatic tumor burden using bioluminescence imaging. The luminescent signal of tumor cells is represented as the total photon flux detected in each organ from individual mice with the bar indicating the average. ***P<0.001, **P<0.05 compared to the vehicle control group.
To determine the effects of sunitinib on cell growth, 2×10^5 cells were plated in a 6-well tissues culture dish. […] On the sixth day of treatment, viable cells per well was quantified using a Beckman-Coulter Vi-Cell Viability Analyzer.

[2] = tested on: HMLER-FOXC2 cells; test: Mammosphere assay, HMLER-FOXC2; assay type: cell-based, human; conditions: HMLER-FOXC2, 1000 cells, sunitinib 10 μM, 7 days
Protocol: as §1
(§2) Mammosphere cultures were performed as described (Dontu et al., 2003), with the exception that culture medium contained 1% methylcellulose to reduce cell aggregation (Mani et al., 2008). […] Spheres were quantified after 7 days.

[3] = tested on: HMLER-Snail cells; test: Mammosphere assay, HMLER-Snail; assay type: cell-based, human; conditions: 1000 cells, sunitinib 10 μM, 7 days
Protocol: as §1, §2

[4] = tested on: HMLE-Snail and SUM159 cells expressing shControl or shFOXC2; test: MTS cell viability assay, cells expressing endogenous FOXC2; assay type: cell-based, human; conditions: cells expressing endogenous FOXC2 (shControl) versus shFOXC2, 96 hours, increasing concentrations
Protocol: (§3) FIGS. 12A and B: Quantification of HMLE-Snail (FIG. 12A) and SUM159 (FIG. 12B) cell viability expressing either shControl or shFOXC2, following culture for 96 hours in increasing concentrations of sunitinib. Cell viability was assessed using an MTS assay. Top lines represent shFOXC2; bottom lines represent shControl. FIG. 12C: In vitro quantification of mammospheres formed by cells described above grown in the presence of sunitinib. Data represents the number of mammospheres formed per 1000 cells seeded after 7 days of culture. For each cell type, the left column represents Vehicle and the right column represents Sunitinib. Error bars indicate SEM. *P<0.05.

[5] = tested on: HMLE-Snail and SUM159 cells expressing shControl or shFOXC2; test: Mammosphere assay, cells expressing endogenous FOXC2; assay type: cell-based, human; conditions: cells expressing endogenous FOXC2 (shControl) versus shFOXC2, 1000 cells seeded, 7 days
Protocol: as §3
Mammosphere cultures were performed as described (Dontu et al., 2003), with the exception that culture medium contained 1% methylcellulose to reduce cell aggregation (Mani et al., 2008). One thousand cells were plated per well into 96-well plates and cultured for 7-10 days, with fresh medium replaced every 3 days. Following incubation, mammospheres were photographed and spheres with a diameter greater than 75 μm were counted. To test the effects of sunitinib, 1000 cells were plated in 96-well low attachment plate in 100 μl mammosphere media. At 24 hours and 96 hours, 100 μl of mammosphere media containing 10 μM sunitinib or vehicle control (DMSO) was added to each well. Spheres were quantified after 7 days.

[6] = tested on: HMLER-FOXC2 tumors; test: Orthotopic HMLER-FOXC2 xenograft in the mammary fat-pad; assay type: in vivo, NOD/SCID mice
Protocol: FIG. 7: Sunitinib inhibits the growth and metastasis of FOXC2-expressing tumors. FIG. 7A: Quantification of HMLER-Vector and HMLER-FOXC2 cell viability in the presence of sunitinib (10 μM) relative to vehicle (DMSO). N=3; error bars indicate SEM. *P<0.05. FIG. 7B: In vitro quantification of mammospheres formed by 1000 HMLER-FOXC2 and HMLER-Snail cells in the presence of sunitinib (10 μM) or DMSO. N=3; error bars indicate SEM. *P<0.05. FIG. 7C: Tumor volume of HMLER-FOXC2 cells injected into the mammary fat pad of NOD/SCID mice and treated with 40 mg/kg of sunitinib or vehicle (N=9) daily for the indicated number of days. Top line represents Vehicle; bottom line represents Sunitinib. FIG. 7D: Event-free survival of mice with orthotopic HMLER-FOXC2 xenografts treated daily with sunitinib (40 mg/kg, N=7) or vehicle (N=10). Mice were euthanized once tumors reached 1.5 cm^3. Bottom line represents Vehicle; top line represents Sunitinib. FIGS. 7E and F: Thirty days following initiation of sunitinib or vehicle treatment, mice were euthanized and the organs, lung (FIG. 7E) and brain (FIG. 7F), were dissected and analyzed for metastatic tumor burden using bioluminescence imaging. The luminescent signal of tumor cells is represented as the total photon flux detected in each organ from individual mice with the bar indicating the average. ***P<0.001, **P<0.05 compared to the vehicle control group.
To ascertain the effects of sunitinib on HMLER-FOXC2 tumor growth and animal survival, 1×10^6 firefly luciferase-labeled HMLER-FOXC2 cells were injected into the mammary fat-pad of NOD/SCID mice as described above. After 24 hours, the mice were treated 5 days a week with 40 mg/kg sunitinib or vehicle (n=9) by oral gavage. Animals were sacrificed once the tumors reached 1.5 cm^3 or 30 days following injection and the dissected organs were immediately analyzed for luciferase activity.

With `CCN(CC)CCNC(=O)c1c(C)[nH]c(/C=C2\C(=O)Nc3ccc(F)cc32)c1C` [sunitinib] the “cell growth (cell viability relative to vehicle DMSO)” value [1] was “specifically inhibit the cell growth”, the “decrease of mammosphere formation compared to vehicle (DMSO) treated cells” value [2] was > 8 fold and the “decrease of mammosphere formation compared to vehicle (DMSO) treated cells” value [3] was > 20 fold. The “sensitivity to sunitinib by MTS assay” value [4] was “increased sensitivity”, the “sensitivity to sunitinib by reduction in mammosphere formation” value [5] was “increased sensitivity” and the “primary tumor growth (tumor volume)” value ([6]; 40 mg/kg sunitinib by oral gavage versus vehicle, NOD/SCID mice) was “reduced primary tumor growth”. The “metastatic burden in brain (photon counts, bioluminescence)” value ([6]; 40 mg/kg sunitinib oral versus vehicle, thirty days after start of treatment, dissected brain) was “significantly reduced metastatic burden”, the “metastatic burden in lungs (photon counts, bioluminescence)” value ([6]; 40 mg/kg sunitinib oral versus vehicle, thirty days after start of treatment, dissected lungs) was “significantly reduced metastatic burden” and the event-free survival ([6]; 40 mg/kg sunitinib oral versus vehicle, mice euthanized once tumors reached 1.5 cm^3) was “extended event-free survival”.
